# Measurements taken from patent US20230356105A1, “TETRAAZADODECANE BASED CHELATING AGENTS FOR SEPARATION OF RARE EARTH ELEMENTS AND METHOD THEREFOR” (Ustav Organicke Chemie a Biochemie AV CR V.V.I., priority 2020, published 2023).
# Several values for one entry are separate records, joined by “and”; a condition that tells them apart may be missing. Identical values can stand only once. Marks after values point to notes of the source that are not given here.
# Legend:
# Assay type in all cases: physicochemical
# [1] = Ultrafiltration to remove benzoic acid and effect precipitation of L5 complexes (Example 26)
# Method: Stock solutions were pipetted into a 20 mL glass vial to prepare the reaction mixture: • 1. 938 μL 196 mM aqueous chelator L5 (pH=4) • 2. 836 μL 1000 mM aqueous benzoic acid (stock solution containing 1 equivalent NaOH) • 3. 8000 μL H2O • 4. 952 μL 175.5 mM aqueous LnCl3 solution (from a stock solution containing a mixture of Ln=Nd, Pr, Tb, and Dy, in a ratio of 3.3:1:1:1, Nd:Pr:Tb:Dy)
# The reaction solution was then titrated to pH 6.5 by addition of aqueous 2 M NaOH. The solution was stirred on a magnetic stir-plate at room temperature for 1 hour, and the precipitate was removed from the solution by filtration through a 0.45 μtm regenerated cellulose syringe filter. From this filtered solution, 1 mL was set aside for elemental analysis as the “initial” solution, 1 mL was set aside as a “control” solution in a clean 4 mL glass vial with a PTFE-coated stir bar to be stirred at 600 rpm at room temperature on a magnetic stirrer, and the remaining 9 mL were diluted slightly by addition of 2 mL H2O, then filtered on an ultrafiltration system with a nanofiltration membrane with molecular weight cut-off of 100-250 Da (NFS membrane, Synder Filtration, CA, USA), 4 bar N2 to pressurize the system, magnetic stiffing at 250 rpm, and continual addition of water to replace the filtered volume. The filtrate was collected in an Erlenmeyer flask, and a total volume of 50 mL was filtered over 11 hours. After this time, the “retained” reaction mixture, now having a volume of 10.5 mL and with some precipitate present, was transferred to a clean 20 mL glass vial and stirred by PTFE-coated stir bar on a magnetic stirrer at 600 rpm for an additional 10 hours, as was the control solution. After this additional time, samples of both the control solution and the retained solution from the ultrafiltration were prepared for elemental analysis by filtration through 0.45 μm nylon syringe filters. The initial, control, and retained solutions were then analysed by ICP-OES for determination of absolute Nd, Pr, Dy, and Tb content.
# [2] = Separation of industrially relevant binary mixtures by precipitation using L1, L2 and L3 (Example 10); conditions: supernatant
# Method: Analogous to Example 7), three sets of reaction mixtures with two metals and either compound L1, L2, or L3 were prepared in a 96-well plate with the following differences: each well was equipped with one PTFE-coated magnetic stir bar, the well plate was sealed with a silicon cover, and the reaction mixtures were stirred on a magnetic stirrer for 2 days at room temperature. Analogous to Example 7), the well plate was then centrifuged and concentrations of the metals were determined using ICP-OES. […] It is evident from the results that certain degrees of enrichment are achieved for very different combinations of metals, and that ligands L1, L2, and L3 have different selectivities for given combinations of metals.
# [3] = Separation of Gd/Lu mixture by repeated precipitation using L1 (Example 13); conditions: for Precipitate concentration [mM] Gd / Precipitate concentration [mM] Lu: dissolved to 200 μL
# Method: Stock solutions were pipetted into round-bottom 2 mL Eppendorf tubes as follows: • 1. 10 μL 100 mM aqueous solution of GdCl3 • 2. 10 μL 100 mM aqueous solution of LuCl3 • 3. 20 μL 100 mM aqueous solution of compound • 4. 33.3 μL 3 M MOPS buffer pH=7. • 5. 127.6 μL water.
# Nine identical reaction mixtures were prepared and split into three groups A, B, C. Each tube was equipped with one PTFE-coated magnetic stir bar and sealed, and the mixture was stirred on a magnetic stirrer for 24 hours at room temperature. The tubes were then centrifuged and the supernatants were carefully pipetted out and transferred to a new set of tubes. Precipitates from group A were dissolved by addition of 100 μL 1 M HCl at room temperature over the course of 30 mins and then diluted to 200 μL by the addition of 100 μL water. Concentrations of Gd and Lu in the supernatants and in re-dissolved precipitates from group A were determined by ICP-OES. Precipitates from groups B and C were further processed as follows: the precipitates were dissolved by addition of 100 μL 1 M HCl at room temperature at pH 0 over the course of 30 mins, and the pH was then adjusted to approximately 7 by the addition of 50 μL 2 M NaOH, and the overall volume adjusted to 200 μL by the addition of water. The prepared mixtures were subjected to a second round of precipitation and were stirred on a magnetic stirrer for 24 hours at room temperature. Then, the tubes were again centrifuged and supernatants were carefully pipetted out and transferred to a new set of tubes. Samples from group B were treated identically to the samples from group A previously, and the Gd and Lu content in the supernatants and precipitates was determined by ICP-OES. Precipitates from group C were subjected to a third cycle of precipitation and followed by Gd and Lu content determination analogously to the procedures described above.
# [4] = control solution, stirred without ultrafiltration
# [5] = initial solution (L5 + benzoic acid, pH 6.5, filtered)
# [6] = retained solution after ultrafiltration (100-250 Da membrane)
# [7] = retained*, recalculated from end volume 10.5 to original 9.0 mL
smiles,measurement,setting,value
"O=C(O)CN1CCN(CC(=O)O)CCN(Cc2cccc3ccccc23)CCN(CC(=O)O)CC1 [L5, 2,2′,2″-(10-(naphthalene-1-ylmethyl)-1,4,7,10-tetraazacyklododekane-1,4,7-triyl)triacetic acid]",concentration Dy,[1]; [4],760 µM
same,concentration Nd,[1]; [4],1800 µM
same,concentration Pr,[1]; [4],400 µM
same,concentration Tb,[1]; [4],750 µM
same,concentration sum of M,[1]; [4],3710 µM
same,concentration Dy,[1]; [5],770 µM
same,concentration Nd,[1]; [5],1800 µM
same,concentration Pr,[1]; [5],400 µM
same,concentration Tb,[1]; [5],760 µM
same,concentration sum of M,[1]; [5],3730 µM
same,concentration Dy,[1]; [6],440 µM
same,concentration Nd,[1]; [6],1030 µM
same,concentration Pr,[1]; [6],230 µM
same,concentration Tb,[1]; [6],420 µM
same,concentration sum of M,[1]; [6],2120 µM
same,concentration Dy,[1]; [7],510 µM
same,concentration Nd,[1]; [7],1200 µM
same,concentration Pr,[1]; [7],270 µM
same,concentration Tb,[1]; [7],490 µM
same,concentration sum of M,[1]; [7],2470 µM
"O=C(O)CN1CCN(CC(=O)O)CCN(Cc2ccccc2)CCN(CC(=O)O)CC1 [L1, 2,2′,2″-(10-benzyl-1,4,7,10-tetraazacyclododecane-1,4,7-triyl)triacetic Acid]",[mM] M1,[2]; M1/M2=Eu/Y,0.118 mM
same,[mM] M2,[2]; M1/M2=Eu/Y,0.265 mM
same,[mM] M1,[2]; M1/M2=La/Ce,0.603 mM
same,[mM] M2,[2]; M1/M2=La/Ce,0.388 mM
same,[mM] M1,[2]; M1/M2=Nd/Ce,0.397 mM
same,[mM] M2,[2]; M1/M2=Nd/Ce,0.038 mM
same,[mM] M1,[2]; M1/M2=Nd/Dy,0.204 mM
same,[mM] M2,[2]; M1/M2=Nd/Dy,0.302 mM
same,[mM] M1,[2]; M1/M2=Nd/La,0.177 mM
same,[mM] M2,[2]; M1/M2=Nd/La,0.559 mM
same,[mM] M1,[2]; M1/M2=Nd/Pr,0.530 mM
same,[mM] M2,[2]; M1/M2=Nd/Pr,0.572 mM
same,[mM] M1,[2]; M1/M2=Nd/Tb,0.325 mM
same,[mM] M2,[2]; M1/M2=Nd/Tb,0.142 mM
same,[mM] M1,[2]; M1/M2=Pr/Ce,0.186 mM
same,[mM] M2,[2]; M1/M2=Pr/Ce,0.285 mM
same,[mM] M1,[2]; M1/M2=Pr/Dy,0.216 mM
same,[mM] M2,[2]; M1/M2=Pr/Dy,0.157 mM
same,[mM] M1,[2]; M1/M2=Pr/La,0.246 mM
same,[mM] M2,[2]; M1/M2=Pr/La,0.569 mM
same,[mM] M1,[2]; M1/M2=Tb/Dy,0.216 mM
same,[mM] M2,[2]; M1/M2=Tb/Dy,0.284 mM
same,[mM] M1,[2]; M1/M2=Tb/Eu,0.206 mM
same,[mM] M2,[2]; M1/M2=Tb/Eu,0.159 mM
same,[mM] M1,[2]; M1/M2=Tb/Pr,0.116 mM
same,[mM] M2,[2]; M1/M2=Tb/Pr,0.211 mM
same,[mM] M1,[2]; M1/M2=Tb/Y,0.143 mM
same,[mM] M2,[2]; M1/M2=Tb/Y,0.361 mM
same,Supernatant concentration [mM] Lu,"[3]; group A, 1st precipitation",4.28 mM and 4.35 mM and 4.12 mM and 4.36 mM
same,Precipitate concentration [mM] Gd,"[3]; group A, 1st precipitation",4.24 mM and 4.38 mM and 4.22 mM and 4.12 mM
same,Precipitate concentration [mM] Lu,"[3]; group A, 1st precipitation",0.99 mM and 1.08 mM and 0.98 mM and 0.90 mM
same,Supernatant concentration [mM] Lu,"[3]; group B, 2nd precipitation",0.80 mM and 0.83 mM and 0.77 mM
same,Precipitate concentration [mM] Gd,"[3]; group B, 2nd precipitation",3.33 mM and 3.40 mM and 3.70 mM and 3.48 mM
same,Precipitate concentration [mM] Lu,"[3]; group B, 2nd precipitation",0.23 mM and 0.21 mM and 0.22 mM (2×)
same,Supernatant concentration [mM] Lu,"[3]; group C, 3rd precipitation",0.24** mM and 0.17 mM and 0.16 mM and 0.19 mM
same,Precipitate concentration [mM] Lu,"[3]; group C, 3rd precipitation",0.05** mM and 0.07 mM and 0.06 mM
